Reference: patent publication US20230200390A1, “SELECTIVE HERBICIDES BASED ON SUBSTITUTED ISOXAZOLIN CARBOXAMIDES AND MEFENPYR-DIETHYL” (BAYER AKTIENGESELLSCHAFT, priority 2020, published 2023)

Tests used:
Type in all cases: in vivo
[1] = system: spring wheat, TRZAS Triso; assay: Seed treatment with safener; post-emergence herbicide, crop damage; conditions: for HER effect + SAF [%] (crop damage) / Reduction [%] / Reduction [Difference]: mefenpyr-diethyl 0.5 g a.i./kg seed; for HER effect [%] (crop damage, herbicide without safener): no safener
Text: (§1) For safener seed treatment trials, sufficient seed amounts of the respective crops (spring wheat (TRZAS); spring barley (HORVS)) were weighed into screw cap glass bottles with a minimum volume trice of the seeds.
(§2) As a first step, specified safeners formulated as wettable powder (WP) or wettable granules (WG) were weighed out for the required dosages (g a.i./kg seed), corresponding to the seed amounts. The safener amounts were mixed with a coloured slurry blind formulation type, prediluted with milk at 3.5% fat rate (25 mgs slurry formulation plus 2 ml milk per 10 grams of seed). A tube roller was used for coating. The solutions were gradually pipetted each on the rotating seeds followed by coating for min. 3 hours until all liquid had been soaked up by the seeds. Thereafter, the coated seeds were put flat on open trays for drying over night at room temperature.
(§3) Treated seeds were then placed into pots (7 cm diameter) on the surface of sandy loam, pressed down, flat covered with additional soil and finally covered with sandy soil, also pressed down, watered, and kept under good growth conditions in a greenhouse, until the plants had reached 2-leaf-stage (BBCH 12).
(§4) At that stage, post-emergence application of the specified herbicides was done on:
(§5) a) pot sets containing plants with safener-coated seeds as described above,
(§6) b) as a reference, pot sets of plants without seed treatment.
(§7) The herbicides were formulated as wettable powder (WP). Equivalent to the spray area, compound amounts were weighed out and diluted related to the water application rate (300 l/ha) to an aqueous suspension plus additive (1 l/ha MERO). Dosage related equivalents were conventionally sprayed on trays with the potted plants.
(§8) After application, the test plants were kept under good growth conditions in a greenhouse.
(§9) Assessment timings were 10 and 21 days after treatment (DAT) with the herbicide, by visual scoring of the crop damage in % (comparison of untreated with treated plants, either sprayed only with herbicide or with herbicide on plants with treated seeds).

[2] = system: spring barley, HORVS Montoya; assay: as above; conditions: for HER effect + SAF / Reduction [%] / Reduction [Difference]: mefenpyr-diethyl 0.5 g a.i./kg seed
Text: as §1, §2, §3, §4, §5, §6, §7, §8, §9

[3] = system: spring wheat, TRZAS Triso; assay: Tank-mix; post-emergence: crop damage by herbicide with/without safener mefenpyr-diethyl
Description: (§10) Seeds of crops (spring wheat, TRZAS; spring barley, HORVS; maize, ZEAMA) were placed in sandy loam soil in peat pots, covered with soil and cultivated in a greenhouse under good growth conditions. Two to three weeks after sowing, the test plants were treated at the 1 to 3-leaf stage. The herbicide/safener active compound combinations according to the invention, formulated as wettable powders or emulsion concentrates, and, in parallel tests, the correspondingly formulated individual active compounds were sprayed onto the green parts of the plants in various dosages using an amount of water of 300 l/ha (converted).
(§11) The pots were returned under good growing conditions in a glasshouse and a visual assessment of herbicidal effects was made at intervals from 1 to 3 weeks after herbicide application (DAT=days after treatment). Assessment was on a percentage basis in comparison with untreated control plants (0%=no injury, 100%=complete kill).

[4] = system: spring barley, HORVS Montoya; assay: as above
Description: as §10, §11

[5] = HER 8 g a.i./ha post-emergence, 21 DAT
[6] = HER 32 g a.i./ha post-emergence, 21 DAT
[7] = herbicide alone 8 g a.i./ha post-emergence, 21 DAT
[8] = herbicide alone 32 g a.i./ha post-emergence, 21 DAT
[9] = HER 1.5 g a.i./ha + mefenpyr-diethyl 50 g a.i./ha, 10 DAT
[10] = HER 6 g a.i./ha + mefenpyr-diethyl 50 g a.i./ha, 10 DAT
[11] = HER 24 g a.i./ha + mefenpyr-diethyl 100 g a.i./ha, 10 DAT
[12] = herbicide alone 6 g a.i./ha, 10 DAT
[13] = herbicide alone 24 g a.i./ha, 10 DAT
[14] = HER 32 g a.i./ha + mefenpyr-diethyl 100 g a.i./ha, 21 DAT
[15] = herbicide alone 32 g a.i./ha, 21 DAT
[16] = HER 8 g a.i./ha + mefenpyr-diethyl 50 g a.i./ha, 10 DAT
[17] = HER 32 g a.i./ha + mefenpyr-diethyl 100 g a.i./ha, 10 DAT
[18] = HER 8 g a.i./ha + mefenpyr-diethyl 50 g a.i./ha, 21 DAT
[19] = HER 0.5 g a.i./ha post-emergence, 21 DAT
[20] = HER 2 g a.i./ha post-emergence, 21 DAT
[21] = HER 2 g a.i./ha + mefenpyr-diethyl 50 g a.i./ha, 21 DAT
[22] = HER 1.5 g a.i./ha + mefenpyr-diethyl 50 g a.i./ha, 21 DAT
[23] = HER 24 g a.i./ha post-emergence, 10 DAT

SMILES: CC(C)OC(=O)C1CC(NC(=O)C2(C)CC(c3cccc(F)c3)=NO2)CO1 (mixture of isomers) [Example 1.78]
- HER effect + SAF [%] (crop damage) ([1]; 10 DAT, HER dose 6 g a.i./ha): 30%
- Reduction [%] ([1]; 10 DAT, HER dose 6 g a.i./ha): 57%
- Reduction [Difference] ([1]; 10 DAT, HER dose 6 g a.i./ha): 40
- HER effect [%] (crop damage, herbicide without safener) ([1]; 10 DAT, HER dose 6 g a.i./ha): 70%
- HER effect + SAF [%] (crop damage) ([1]; 10 DAT, HER dose 24 g a.i./ha): 30%
- Reduction [%] ([1]; 10 DAT, HER dose 24 g a.i./ha): 57%
- Reduction [Difference] ([1]; 10 DAT, HER dose 24 g a.i./ha): 40
- HER effect [%] (crop damage, herbicide without safener) ([1]; 10 DAT, HER dose 24 g a.i./ha): 70%
- HER effect + SAF [2, 5]: 0%
- Reduction [%] [2, 5]: 100%
- Reduction [Difference] [2, 5]: 20
- HER effect + SAF [2, 6]: 10%
- Reduction [%] [2, 6]: 75%
- Reduction [Difference] [2, 6]: 30
- HER effect [2, 7]: 20%
- HER effect [2, 8]: 40%
- HER effect + SAF [3, 9]: 0%
- Reduction [%] [3, 9]: 100%
- Reduction [Difference] [3, 9]: 20
- HER effect + SAF [3, 10]: 10%
- Reduction [%] [3, 10]: 86%
- Reduction [Difference] [3, 10]: 60
- HER effect + SAF [3, 11]: 30%
- Reduction [%] [3, 11]: 57%
- Reduction [Difference] [3, 11]: 40
- HER effect ([3]; herbicide alone 1.5 g a.i./ha, 10 DAT): 20%
- HER effect [3, 12]: 70%
- HER effect [3, 13]: 70%
- HER effect + SAF [4, 14]: 10%
- Reduction [%] [4, 14]: 75%
- Reduction [Difference] [4, 14]: 30
- HER effect [4, 15]: 40%

SMILES: C=CC1(C(=O)NC2COC(C(=O)OC)C2)CC(c2cc(C)cc(F)c2)=NO1 (mixture of isomers) [Example 1.71]
- HER effect + SAF [%] (crop damage) ([1]; 10 DAT, HER dose 8 g a.i./ha): 0%
- Reduction [%] ([1]; 10 DAT, HER dose 8 g a.i./ha): 100%
- Reduction [Difference] ([1]; 10 DAT, HER dose 8 g a.i./ha): 50
- HER effect [%] (crop damage, herbicide without safener) ([1]; 10 DAT, HER dose 8 g a.i./ha): 50%
- HER effect + SAF [%] (crop damage) ([1]; 10 DAT, HER dose 32 g a.i./ha): 0%
- Reduction [%] ([1]; 10 DAT, HER dose 32 g a.i./ha): 100%
- Reduction [Difference] ([1]; 10 DAT, HER dose 32 g a.i./ha): 85
- HER effect [%] (crop damage, herbicide without safener) ([1]; 10 DAT, HER dose 32 g a.i./ha): 85%
- HER effect + SAF [2, 5]: 30%
- Reduction [%] [2, 5]: 40%
- Reduction [Difference] [2, 5]: 20
- HER effect + SAF [2, 6]: 40%
- Reduction [%] [2, 6]: 43%
- Reduction [Difference] [2, 6]: 30
- HER effect [2, 7]: 50%
- HER effect [2, 8]: 70%
- HER effect + SAF [3, 16]: 0%
- Reduction [%] [3, 16]: 100%
- Reduction [Difference] [3, 16]: 50
- HER effect + SAF [3, 17]: 20%
- Reduction [%] [3, 17]: 76%
- Reduction [Difference] [3, 17]: 65
- HER effect ([3]; herbicide alone 8 g a.i./ha, 10 DAT): 50%
- HER effect ([3]; herbicide alone 32 g a.i./ha, 10 DAT): 85%
- HER effect + SAF [4, 18]: 20%
- Reduction [%] [4, 18]: 60%
- Reduction [Difference] [4, 18]: 30
- HER effect + SAF [4, 14]: 50%
- Reduction [%] [4, 14]: 29%
- Reduction [Difference] [4, 14]: 20
- HER effect ([4]; herbicide alone 8 g a.i./ha, 21 DAT): 50%
- HER effect [4, 15]: 70%

SMILES: CC(C)OC(=O)C1CC(NC(=O)C2(C(C)(F)F)CC(c3cc(F)cc(F)c3)=NO2)CO1 (mixture of isomers) [Example 1.88]
- HER effect + SAF [%] (crop damage) ([1]; 21 DAT, HER dose 2 g a.i./ha): 10%
- Reduction [%] ([1]; 21 DAT, HER dose 2 g a.i./ha): 86%
- Reduction [Difference] ([1]; 21 DAT, HER dose 2 g a.i./ha): 60
- HER effect [%] (crop damage, herbicide without safener) ([1]; 21 DAT, HER dose 2 g a.i./ha): 70%
- HER effect + SAF [%] (crop damage) ([1]; 21 DAT, HER dose 8 g a.i./ha): 20%
- Reduction [%] ([1]; 21 DAT, HER dose 8 g a.i./ha): 76%
- Reduction [Difference] ([1]; 21 DAT, HER dose 8 g a.i./ha): 65
- HER effect [%] (crop damage, herbicide without safener) ([1]; 21 DAT, HER dose 8 g a.i./ha): 85%
- HER effect + SAF [2, 19]: 0%
- Reduction [%] [2, 19]: 100%
- Reduction [Difference] [2, 19]: 20
- HER effect + SAF [2, 20]: 10%
- Reduction [%] [2, 20]: 80%
- Reduction [Difference] [2, 20]: 40
- HER effect + SAF [2, 5]: 20%
- Reduction [%] [2, 5]: 76%
- Reduction [Difference] [2, 5]: 65
- HER effect ([2]; herbicide alone 0.5 g a.i./ha post-emergence, 21 DAT): 20%
- HER effect ([2]; herbicide alone 2 g a.i./ha post-emergence, 21 DAT): 50%
- HER effect [2, 7]: 85%
- HER effect + SAF [3, 21]: 30%
- Reduction [%] [3, 21]: 57%
- Reduction [Difference] [3, 21]: 40
- HER effect ([3]; herbicide alone 2 g a.i./ha, 21 DAT): 70%
- HER effect + SAF [4, 22]: 10%
- Reduction [%] [4, 22]: 75%
- Reduction [Difference] [4, 22]: 30
- HER effect ([4]; herbicide alone 1.5 g a.i./ha, 21 DAT): 40%

SMILES: CC1(C(=O)NC2COC(C(=O)OCc3ccccc3)C2)CC(c2cccc(F)c2)=NO1 (mixture of isomers) [Example 1.79]
- HER effect + SAF [%] (crop damage) ([1]; 10 DAT, HER dose 24 g a.i./ha): 30%
- Reduction [%] ([1]; 10 DAT, HER dose 24 g a.i./ha): 40%
- Reduction [Difference] ([1]; 10 DAT, HER dose 24 g a.i./ha): 20
- HER effect [%] (crop damage, herbicide without safener) ([1]; 10 DAT, HER dose 24 g a.i./ha): 50%
- HER effect + SAF [2, 23]: 40%
- Reduction [%] [2, 23]: 43%
- Reduction [Difference] [2, 23]: 30
- HER effect ([2]; herbicide alone 24 g a.i./ha post-emergence, 10 DAT): 70%
- HER effect + SAF [3, 10]: 0%
- Reduction [%] [3, 10]: 100%
- Reduction [Difference] [3, 10]: 30
- HER effect + SAF [3, 11]: 10%
- Reduction [%] [3, 11]: 80%
- Reduction [Difference] [3, 11]: 40
- HER effect [3, 12]: 30%
- HER effect [3, 13]: 50%
- HER effect + SAF [4, 10]: 0%
- Reduction [%] [4, 10]: 100%
- Reduction [Difference] [4, 10]: 20
- HER effect + SAF [4, 11]: 0%
- Reduction [%] [4, 11]: 100%
- Reduction [Difference] [4, 11]: 70
- HER effect [4, 12]: 20%
- HER effect [4, 13]: 70%
